{
  "source": "patent US6855338B2",
  "about": "“Anti-tumor therapies comprising a combination of a cartilage extract and an anti-neoplastic agent providing high efficacy and low toxic side effects” (priority 1997, dated 2005)",
  "key": {"LLC lung metastasis": {"tested_on": "LLC lung metastasis", "test": "Lewis lung carcinoma model (LLC), number of lung metastases", "assay_type": "in vivo, C57B1/6 mice", "settings": "for Percent reduction from control (lung metastases): first experiment", "description": "We have verified the anti-tumor efficacy and the protective effect of cartilage extract by testing a combination of diverse concentrations of cartilage liquid extract alone and in combination with cisplatin (CDDP), in the Lewis lung carcinoma model (LLC). LLC cells were resuspended in sterile PBS (10^6 cells/0.2 ml) and implanted in C57B1/6 mice. After a period of 11 days, primary tumors reached an average volume of 1.0 cm^3 and were surgically resected. After surgery, mice were randomized into groups of 15 animals and control article (saline) and cartilage extract were administered on a daily basis via oral gavage at the dose levels indicated for a period of 15 days. At day 16-post-surgery, animals were sacrificed, the lungs fixed in 10% […] and the number of lung metastases counted. Animals were always kept under controlled environment: temperature 22° C., humidity 40% to 50%, light/dark cycle: 12 hours. They were fed and given water ad libitum. In a first experiment, five injections of CDDP were given intraperitoneally every three days (1, 2 and 3 mg/Kg). Cartilage extract was given per as daily (31, 125 and 500 mg/Kg). Saline was given as a control. In a second independent experiment, CDDP was given at a dose of 4 mg/kg. Cartilage extract was given at doses 75, 150 and 500 mg/kg. Saline was given again as a control. Administration of CDDP alone reduced the number of metastases by about 71%."}, "[1]": {"test": "Toxic side effects by body weights of LLC mice", "assay_type": "in vivo, C57B1/6 mice", "settings": "CDDP alone 4 mg/kg; after fifteen days from inoculation", "description": "LLC cells were resuspended in sterile PBS (10^6 cells/0.2 ml) and implanted in C57B1/6 mice. After a period of 11 days, primary tumors reached an average volume of 1.0 cm^3 and were surgically resected. After surgery, mice were randomized into groups of 15 animals and control article (saline) and cartilage extract were administered on a daily basis via oral gavage at the dose levels indicated for a period of 15 days. At day 16-post-surgery, animals were sacrificed, the lungs fixed in 10% […] and the number of lung metastases counted. Animals were always kept under controlled environment: temperature 22° C., humidity 40% to 50%, light/dark cycle: 12 hours. They were fed and given water ad libitum. The toxic side effects were evaluated by measuring the body weights. The results are illustrated in FIG. 2. During the first week of treatment, the body weights increased in all groups. Treatment started on Day 12 of the protocol. The decrease in body weight observed between the second and the third time point of the graph results from the surgery (on day 11) necessary to remove the primary LLC tumor mass. After fifteen days from inoculation, it was observed that CDDP alone was very toxic since a decrease of about 16% of body weight occurred in comparison to the non-treated group."}, "[2]": {"tested_on": "peripheral white blood cells", "test": "Number of peripheral white blood cells in normal mice", "assay_type": "in vivo", "settings": "for Number of white blood cells: day 15", "description": "Toxicity was evaluated in cancerous animals by the body weight decrease. We further characterized the nature of the protective effect provided by the cartilage extract by assessing an hematology parameter namely the number of peripheral white blood cells. Normal mice were injected (l.P.) with CDDP (3 and 4 mg/kg) on days 1, 4, 7, 10 and 13 of the experimental protocol. The cartilage extract was administered, orally, at doses of 75, 150 and 500 mg/kg/day. Animals were sacrificed on day 15 and blood samples were collected for cell count using an automated blood cell analyzer. Groups consisted of animals receiving CDDP alone, the cartilage extract alone, both in combination or saline as negative control. […] Values obtained from individual groups that have received cartilage extract were pooled to increase statistical power. Mean white blood cell counts were plotted according to treatment group regimen (FIG. 3). A linear trend indicated a clear monotonic trend (r^2=0.9126) for as decrease in cell counts according to treatment regimen stringency. This observation is in agreement with a protective effect of the cartilage extract relative to the peripheral white blood cell population reduced during CDDP administration."}},
  "data": [
    {"smiles": "[NH2][Pt]([NH2])([Cl])[Cl]", "note": "[CDDP, cisplatin]", "values": [
      {"measurement": "Percent reduction from control (lung metastases)", "setting": "LLC lung metastasis; CDDP 1 mg/kg i.p., alone", "result": 19, "unit": "%"},
      {"measurement": "Percent reduction from control (lung metastases)", "setting": "LLC lung metastasis; CDDP 2 mg/kg i.p., alone", "result": 35, "unit": "%"},
      {"measurement": "Percent reduction from control (lung metastases)", "setting": "LLC lung metastasis; CDDP 3 mg/kg i.p. every three days x5, alone", "result": 54, "unit": "%"},
      {"measurement": "reduction of the number of metastases", "setting": "LLC lung metastasis; CDDP alone 4 mg/kg, second independent experiment", "result": "about 71%"},
      {"measurement": "decrease in metastases", "setting": "LLC lung metastasis; CDDP alone at 5 mg/kg (data not shown), stated equivalent to the 500 mg/kg/day + 3 mg combination", "result": "~85", "unit": "%"},
      {"measurement": "decrease of body weight in comparison to the non-treated group", "setting": "[1]", "result": "about 16%"},
      {"measurement": "Number of white blood cells", "setting": "[2]; CDDP 3 mg/kg i.p. days 1, 4, 7, 10, 13", "result": "3.4e+09", "unit": "L⁻¹"},
      {"measurement": "Number of white blood cells", "setting": "[2]; CDDP 4 mg/kg i.p. days 1, 4, 7, 10, 13", "result": "3.3e+09", "unit": "L⁻¹"},
      {"measurement": "effect on number of white blood cells", "setting": "[2]; CDDP 3 and 4 mg/kg alone", "result": "significant decrease of the number of white blood cells"}
    ]}
  ]
}
